Experimental data reported in article PMC7614775 (Nature chemical biology, 2022).
pIC50: −log10 of the molar value. Entries after “also recorded” stand apart in the source; their conditions may differ. Read-outs that look alike come from different tables or passages of the source.

How the values were obtained:
[1] = system: IFNα-dependent STAT1 phosphorylation; assay: Phospho-STAT western blot in mouse splenocytes; assay type: cell-based; settings: 0.01–0.1 µM
TOR4A_C21 [2] = target: T1, TOR4A_C21 (Homo sapiens, UniProt Q9NXH8); assay: Untargeted cysteine MS-ABPP, human PBMC lysates treated in vitro; assay type: binding; settings: PBMC lysate in vitro, 1 h
T1 sequence (Q9NXH8 whole entry): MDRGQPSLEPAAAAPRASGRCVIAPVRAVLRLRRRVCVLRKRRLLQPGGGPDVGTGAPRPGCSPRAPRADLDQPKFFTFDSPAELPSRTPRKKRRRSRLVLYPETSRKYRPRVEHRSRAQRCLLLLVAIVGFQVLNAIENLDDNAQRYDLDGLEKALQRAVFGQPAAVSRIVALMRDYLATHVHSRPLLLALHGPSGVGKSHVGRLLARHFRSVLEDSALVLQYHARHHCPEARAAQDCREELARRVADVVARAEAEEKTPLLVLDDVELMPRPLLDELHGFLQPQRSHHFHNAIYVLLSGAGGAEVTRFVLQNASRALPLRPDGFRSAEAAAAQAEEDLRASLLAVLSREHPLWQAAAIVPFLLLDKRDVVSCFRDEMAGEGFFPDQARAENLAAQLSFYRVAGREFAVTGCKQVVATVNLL

[3] = system: IFNα-stimulated human PBMCs; assay: Multiplex immunoassay of cytokines/chemokines; assay type: cell-based; settings: compound 2 h, then IFNα 100 ng/mL, 16 h
[4] = system: IL-6-stimulated STAT3 phosphorylation; assay: Phospho-STAT western blot in human PBMCs; assay type: cell-based; settings: 0.1 µM
JAK1_C817 [5] = target: T2, JAK1_C817 (Homo sapiens, UniProt P23458); assay: Untargeted cysteine MS-ABPP, human PBMCs treated in situ; assay type: binding
T2 sequence (P23458 whole entry): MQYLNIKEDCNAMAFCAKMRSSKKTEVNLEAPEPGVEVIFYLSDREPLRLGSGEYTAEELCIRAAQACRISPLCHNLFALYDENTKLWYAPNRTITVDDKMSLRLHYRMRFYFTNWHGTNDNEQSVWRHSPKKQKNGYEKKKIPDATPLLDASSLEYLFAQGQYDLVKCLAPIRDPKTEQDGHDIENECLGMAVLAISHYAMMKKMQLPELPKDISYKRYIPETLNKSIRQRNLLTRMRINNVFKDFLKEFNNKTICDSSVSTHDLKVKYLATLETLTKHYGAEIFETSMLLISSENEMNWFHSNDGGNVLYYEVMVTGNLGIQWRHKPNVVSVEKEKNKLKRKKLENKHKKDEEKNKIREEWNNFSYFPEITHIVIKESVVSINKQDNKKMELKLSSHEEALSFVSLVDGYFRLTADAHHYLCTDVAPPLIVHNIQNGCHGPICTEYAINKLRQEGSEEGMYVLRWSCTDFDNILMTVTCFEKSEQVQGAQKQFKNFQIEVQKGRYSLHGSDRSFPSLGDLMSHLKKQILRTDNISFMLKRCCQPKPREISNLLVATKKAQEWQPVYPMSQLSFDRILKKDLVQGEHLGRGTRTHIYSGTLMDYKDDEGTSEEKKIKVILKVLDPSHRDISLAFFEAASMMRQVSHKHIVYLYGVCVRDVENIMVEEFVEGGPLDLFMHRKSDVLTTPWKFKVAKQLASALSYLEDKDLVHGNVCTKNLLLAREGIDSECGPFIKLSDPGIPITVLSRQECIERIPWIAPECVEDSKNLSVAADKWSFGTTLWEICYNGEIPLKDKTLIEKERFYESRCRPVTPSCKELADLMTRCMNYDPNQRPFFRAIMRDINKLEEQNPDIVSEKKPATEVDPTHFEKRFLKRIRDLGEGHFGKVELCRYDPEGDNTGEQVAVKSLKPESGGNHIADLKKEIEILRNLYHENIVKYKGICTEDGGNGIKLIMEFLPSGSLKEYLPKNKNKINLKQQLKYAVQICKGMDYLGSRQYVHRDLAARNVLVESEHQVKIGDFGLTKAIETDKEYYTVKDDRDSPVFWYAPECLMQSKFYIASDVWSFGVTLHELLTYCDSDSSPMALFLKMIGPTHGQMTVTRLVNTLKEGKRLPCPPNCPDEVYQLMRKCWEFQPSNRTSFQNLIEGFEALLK

JAK1_C817 [6] = target: T2, JAK1_C817; assay: Untargeted cysteine MS-ABPP, human PBMC lysates treated in vitro; assay type: binding; settings: PBMC lysate in vitro, 1 h
[7] = target: recombinant JAK1 (WT, C810A, C817A) (Homo sapiens, UniProt P23458); assay: Gel-based ABPP in 22Rv1 cells; assay type: binding; settings: pre-treatment 0.01–1 μM, 2 h, in situ
Sequence of recombinant JAK1 (WT, C810A, C817A) (P23458 whole entry C810A/C817A): as the sequence (P23458 whole entry) above, with C810A, C817A counted along it

IL-12-STAT4 signaling = assay: Phospho-STAT western blot in mouse splenocytes; assay type: cell-based
[8] = system: αCD3/αCD28-stimulated primary human T cells (IFNγ, IL-2 secretion); assay: Cytokine secretion of activated T cells (ELISA); assay type: cell-based; settings: αCD3/αCD28 co-stimulation, 24 h
TYK2_C838 [9] = target: T3, TYK2_C838 (Homo sapiens, UniProt P29597); assay: Untargeted cysteine MS-ABPP, human PBMCs treated in situ; assay type: binding
T3 sequence (P29597 whole entry): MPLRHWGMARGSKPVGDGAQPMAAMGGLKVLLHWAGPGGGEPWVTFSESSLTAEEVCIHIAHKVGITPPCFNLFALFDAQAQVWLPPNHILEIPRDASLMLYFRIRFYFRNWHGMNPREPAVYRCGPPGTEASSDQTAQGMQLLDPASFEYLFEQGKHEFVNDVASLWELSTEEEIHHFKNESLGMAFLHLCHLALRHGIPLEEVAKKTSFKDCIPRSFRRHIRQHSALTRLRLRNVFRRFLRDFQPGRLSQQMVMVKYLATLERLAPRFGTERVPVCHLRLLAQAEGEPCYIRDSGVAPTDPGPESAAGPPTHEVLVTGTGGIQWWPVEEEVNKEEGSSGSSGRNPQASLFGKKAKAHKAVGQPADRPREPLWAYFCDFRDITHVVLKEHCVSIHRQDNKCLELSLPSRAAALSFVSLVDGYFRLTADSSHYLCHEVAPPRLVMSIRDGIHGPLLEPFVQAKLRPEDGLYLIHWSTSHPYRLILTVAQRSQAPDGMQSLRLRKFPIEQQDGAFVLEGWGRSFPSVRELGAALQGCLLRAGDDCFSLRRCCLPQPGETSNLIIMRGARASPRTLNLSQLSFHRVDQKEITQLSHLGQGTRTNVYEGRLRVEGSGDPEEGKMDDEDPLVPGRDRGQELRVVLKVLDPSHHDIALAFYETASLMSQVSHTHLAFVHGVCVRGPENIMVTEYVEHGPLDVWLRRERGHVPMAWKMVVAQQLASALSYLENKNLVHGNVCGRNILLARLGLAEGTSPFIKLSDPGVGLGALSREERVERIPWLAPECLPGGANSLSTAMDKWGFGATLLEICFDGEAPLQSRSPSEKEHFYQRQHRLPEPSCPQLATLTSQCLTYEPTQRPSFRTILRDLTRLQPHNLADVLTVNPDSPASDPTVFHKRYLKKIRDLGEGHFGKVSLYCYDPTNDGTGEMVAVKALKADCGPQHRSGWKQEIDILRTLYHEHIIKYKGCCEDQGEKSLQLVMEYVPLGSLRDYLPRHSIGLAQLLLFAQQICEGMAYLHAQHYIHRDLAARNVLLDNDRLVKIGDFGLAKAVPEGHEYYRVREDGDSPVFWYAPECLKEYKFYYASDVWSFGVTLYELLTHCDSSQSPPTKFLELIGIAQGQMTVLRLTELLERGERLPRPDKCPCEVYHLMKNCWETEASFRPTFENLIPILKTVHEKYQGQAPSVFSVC

[10] = system: IFNα-stimulated STAT1 phosphorylation; assay: HTRF phospho-STAT1 assay in human PBMCs; assay type: cell-based; settings: read-out: IC50, IFNα-stimulated STAT1 phosphorylation (HTRF)
[11] = system: IL-6-stimulated STAT3 phosphorylation; assay: Phospho-STAT western blot in 22Rv1 cells expressing JAK1 variants; assay type: cell-based, human
SLC66A3_C135 = target: T4, SLC66A3_C135 (Homo sapiens, UniProt Q8N755); assay: Untargeted cysteine MS-ABPP, human PBMCs treated in situ; assay type: binding
T4 sequence (Q8N755 20-202): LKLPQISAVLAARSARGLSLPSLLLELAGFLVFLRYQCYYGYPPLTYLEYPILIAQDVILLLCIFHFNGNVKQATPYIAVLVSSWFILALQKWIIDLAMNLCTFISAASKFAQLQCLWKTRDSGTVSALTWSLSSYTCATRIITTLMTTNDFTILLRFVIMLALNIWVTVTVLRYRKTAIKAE

[12] = system: IL-6-stimulated STAT3 phosphorylation; assay: Phospho-STAT western blot in mouse splenocytes; assay type: cell-based
[13] = system: GM-CSF stimulated STAT5 phosphorylation (JAK2-dependent); assay: Phospho-STAT western blot in human PBMCs; assay type: cell-based; settings: compound 2 h, GM-CSF 15 min
[14] = system: IL-2-dependent STAT5 phosphorylation; assay: Phospho-STAT western blot in mouse splenocytes; assay type: cell-based; settings: 0.01–0.1 µM
[15] = target: JAK1 phosphorylation (pJAK1; Y1034/Y1035) (Homo sapiens, UniProt P23458, C817A); assay: JAK1 phosphorylation western blot in 22Rv1 cells expressing JAK1 variants; assay type: cell-based; settings: C817A-JAK1; 2 µM, 2 h
Sequence of JAK1 phosphorylation (pJAK1; Y1034/Y1035) (Homo sapiens, UniProt P23458, C817A) (P23458 whole entry C817A): as the sequence (P23458 whole entry) above, with C817A counted along it

[16] = target: JAK1 phosphorylation (pJAK1; Y1034/Y1035) (Homo sapiens, UniProt P23458); assay: as above; assay type: cell-based; settings: WT- and C810A-JAK1
Sequence of JAK1 phosphorylation (pJAK1; Y1034/Y1035) (Homo sapiens, UniProt P23458) (P23458 whole entry): as the sequence (P23458 whole entry) above

TYK2_C838 [17] = target: T3, TYK2_C838; assay: Untargeted cysteine MS-ABPP, human PBMC lysates treated in vitro; assay type: binding; settings: PBMC lysate in vitro, 1 h
C816 of mouse JAK1 = C816 of mouse JAK1 (Mus musculus, UniProt P52332); assay: Cysteine MS-ABPP in mouse splenocyte lysates; assay type: binding; settings: 0.01 µM, 1 h
Sequence of C816 of mouse JAK1 (P52332 whole entry): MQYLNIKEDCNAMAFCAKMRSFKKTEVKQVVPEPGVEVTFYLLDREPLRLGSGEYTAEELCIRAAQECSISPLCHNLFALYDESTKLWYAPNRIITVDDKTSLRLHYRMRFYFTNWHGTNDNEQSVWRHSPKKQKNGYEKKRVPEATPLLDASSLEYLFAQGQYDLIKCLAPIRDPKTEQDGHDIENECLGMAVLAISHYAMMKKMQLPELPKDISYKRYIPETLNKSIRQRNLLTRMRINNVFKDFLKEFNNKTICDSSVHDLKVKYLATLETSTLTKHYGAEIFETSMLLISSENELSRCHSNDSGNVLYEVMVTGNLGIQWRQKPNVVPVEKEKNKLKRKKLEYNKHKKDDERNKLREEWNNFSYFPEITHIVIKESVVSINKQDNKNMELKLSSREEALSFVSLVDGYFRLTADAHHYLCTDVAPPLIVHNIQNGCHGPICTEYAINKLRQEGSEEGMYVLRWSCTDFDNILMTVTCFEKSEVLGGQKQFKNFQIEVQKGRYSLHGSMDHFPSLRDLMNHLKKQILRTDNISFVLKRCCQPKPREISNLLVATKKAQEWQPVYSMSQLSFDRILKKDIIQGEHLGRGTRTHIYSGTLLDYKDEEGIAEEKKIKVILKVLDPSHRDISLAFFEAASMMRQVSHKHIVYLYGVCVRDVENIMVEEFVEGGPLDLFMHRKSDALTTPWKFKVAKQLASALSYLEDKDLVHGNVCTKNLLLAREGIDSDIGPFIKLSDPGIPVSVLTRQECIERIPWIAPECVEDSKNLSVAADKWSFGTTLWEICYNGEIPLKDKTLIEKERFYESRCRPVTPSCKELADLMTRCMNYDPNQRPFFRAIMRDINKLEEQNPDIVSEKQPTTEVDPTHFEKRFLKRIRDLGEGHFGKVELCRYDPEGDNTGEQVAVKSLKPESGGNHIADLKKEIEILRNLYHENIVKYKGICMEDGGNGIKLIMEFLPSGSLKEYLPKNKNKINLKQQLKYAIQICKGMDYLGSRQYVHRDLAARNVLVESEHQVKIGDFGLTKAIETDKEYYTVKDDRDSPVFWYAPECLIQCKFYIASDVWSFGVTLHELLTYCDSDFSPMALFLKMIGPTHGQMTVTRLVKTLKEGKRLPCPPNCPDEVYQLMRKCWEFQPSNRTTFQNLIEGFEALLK

[18] = system: IFNγ-stimulated STAT1 phosphorylation; assay: Phospho-STAT western blot in 22Rv1 cells expressing JAK1 variants; assay type: cell-based, human
[19] = system: IFNα-stimulated human PBMCs; assay: Real-Time PCR of interferon-stimulated genes; assay type: cell-based; settings: compound 2 h, then IFNα 16 h
[20] = system: IFNα-stimulated STAT1 phosphorylation; assay: Phospho-STAT western blot in 22Rv1 cells expressing JAK1 variants; assay type: cell-based, human
TOR4A_C21 [21] = target: T1, TOR4A_C21; assay: Untargeted cysteine MS-ABPP, human PBMCs treated in situ; assay type: binding
[22] = target: TYK2 phosphorylation (pTYK2) (Homo sapiens, UniProt P29597); assay: TYK2 phosphorylation western blot in 22Rv1 cells expressing TYK2 variants; assay type: cell-based; settings: WT-TYK2
Sequence of TYK2 phosphorylation (pTYK2) (P29597 whole entry): as the sequence (P29597 whole entry) above

[23] = C817A-JAK1-expressing 22Rv1 cells, up to 2 µM
[24] = WT- or C810A-JAK1-expressing 22Rv1 cells, 2 µM, 2 h
[25] = WT- or C810A-JAK1-expressing 22Rv1 cells, at ~0.2 µM

`CS(=O)(=O)N1CC[C@H](C#CC(=O)N2CCC[C@@H](c3ccc(Cl)c(Cl)c3)C2)C1` [VVD-118313] was tested, and the “effect on IFNα-dependent STAT1 phosphorylation” value [1] was “inhibited”, the “%Engagement” value (TOR4A_C21 [2]; 0.01 µM) was 9% and the “Engagement Ratio (DMSO/VVD-118313)” value (TOR4A_C21 [2]; 0.01 µM) was 1.1. The “%Engagement” value (TOR4A_C21 [2]; 0.1 µM) was 49%, the “Engagement Ratio (DMSO/VVD-118313)” value (TOR4A_C21 [2]; 0.1 µM) was 1.9 and the “%Engagement” value (TOR4A_C21 [2]; 1 µM) was 90%. The “Engagement Ratio (DMSO/VVD-118313)” value (TOR4A_C21 [2]; 1 µM) was 10.0, the “%Engagement” value (TOR4A_C21 [2]; 10 µM) was 97% and the “Engagement Ratio (DMSO/VVD-118313)” value (TOR4A_C21 [2]; 10 µM) was 20.0. For the same molecule, the “induction of pro-inflammatory chemokines (CCL2/MCP-1, CXCL10/IP-10, CCL4/MIP-1β)” value [3] was “near-completely suppressed”, the “inhibition of IL-6-stimulated STAT3 phosphorylation” value [4] was greater than 85% and the “%Engagement” value (JAK1_C817 [5]; 0.01 µM) was 84%. For the same molecule, the “Engagement Ratio (DMSO/VVD-118313)” value (JAK1_C817 [5]; 0.01 µM) was 6.3, the “Engagement Ratio (DMSO/VVD-118313)” value (JAK1_C817 [5]; 0.1 µM) was 20.0 and the “%Engagement” value (JAK1_C817 [5]; 1 µM) was 96%. The “Engagement Ratio (DMSO/VVD-118313)” value (JAK1_C817 [5]; 1 µM) was 20.0, the “%Engagement” value (JAK1_C817 [5]; 10 µM) was 97% and the “Engagement Ratio (DMSO/VVD-118313)” value (JAK1_C817 [5]; 10 µM) was 20.0. The “%Engagement” value (JAK1_C817 [6]; 0.01 µM) was 81%, the “Engagement Ratio (DMSO/VVD-118313)” value (JAK1_C817 [6]; 0.01 µM) was 5.1 and the “%Engagement” value (JAK1_C817 [6]; 0.1 µM) was 96%. For the same molecule, the “Engagement Ratio (DMSO/VVD-118313)” value (JAK1_C817 [6]; 0.1 µM) was 20.0, the “%Engagement” value (JAK1_C817 [6]; 1 µM) was 97% and the “Engagement Ratio (DMSO/VVD-118313)” value (JAK1_C817 [6]; 1 µM) was 20.0. The “%Engagement” value (JAK1_C817 [6]; 10 µM) was 98%, the “Engagement Ratio (DMSO/VVD-118313)” value (JAK1_C817 [6]; 10 µM) was 20.0 and the “competition of probe 6 labeling of WT-JAK1” value [7] was “blocked in a concentration-dependent manner”. For the same molecule, the “effect on IL-12-STAT4 signaling” value (IL-12-STAT4 signaling) was “sparing”, the “production of IL-2” value [8] was “slightly increased” and the “secretion of IFNγ” value [8] was “partially blocked”. The “%Engagement” value (TYK2_C838 [9]; 0.01 µM) was 9%, the “Engagement Ratio (DMSO/VVD-118313)” value (TYK2_C838 [9]; 0.01 µM) was 1.1 and the “Engagement Ratio (DMSO/VVD-118313)” value (TYK2_C838 [9]; 0.1 µM) was 5.4. The “%Engagement” value (TYK2_C838 [9]; 1 µM) was 92%, the “Engagement Ratio (DMSO/VVD-118313)” value (TYK2_C838 [9]; 1 µM) was 12.5 and the “%Engagement” value (TYK2_C838 [9]; 10 µM) was 95%. The “Engagement Ratio (DMSO/VVD-118313)” value (TYK2_C838 [9]; 10 µM) was 18.2, the pIC50 ([10]; media supplemented with 10% fetal bovine serum (FBS)) was 7.34 and the pIC50 ([10]; serum-free media) was 7.49. For the same molecule, the “inhibition of IL-6-STAT3 phosphorylation” value [11, 23] was less than 10%, the “effect on IL-6-stimulated pSTAT3” value [11, 24] was “blocked” and the “maximal inhibition of IL-6-STAT3 phosphorylation” value [11, 25] was greater than 80%. The “Engagement Ratio (DMSO/VVD-118313)” value (SLC66A3_C135; 0.01 µM) was 1.0, the “%Engagement” value (SLC66A3_C135; 0.1 µM) was 12% and the “Engagement Ratio (DMSO/VVD-118313)” value (SLC66A3_C135; 0.1 µM) was 1.1. For the same molecule, the “Engagement Ratio (DMSO/VVD-118313)” value (SLC66A3_C135; 1 µM) was 4.4, the “%Engagement” value (SLC66A3_C135; 10 µM) was 99% and the “Engagement Ratio (DMSO/VVD-118313)” value (SLC66A3_C135; 10 µM) was 20.0. For the same molecule, the “effect on IL-6-dependent STAT3 phosphorylation” value ([12]; Tyk2−/− splenocytes) was “fully blocked”, the “effect on IL-6-stimulated STAT3 phosphorylation” value ([12]; WT mouse splenocytes) was “did not inhibit” and the “effect on GM-CSF stimulated STAT5 phosphorylation” value [13] was “no effect; also recorded: modest inhibitory effects”. The “effect on IL-2-dependent STAT5 phosphorylation” value [14] was “inhibited”, the “effect on constitutive JAK1 phosphorylation” value [15] was “did not affect” and the “blockade of JAK1 phosphorylation (maximal activity)” value ([16]; 0.05 µM) was greater than 90%. For the same molecule, the “effect on constitutive JAK1 phosphorylation” value ([16]; 2 µM, 2 h) was “completely blocked”, the “Engagement Ratio (DMSO/VVD-118313)” value (TYK2_C838 [17]; 0.01 µM) was 0.9 and the “%Engagement” value (TYK2_C838 [17]; 0.1 µM) was 32%. The “Engagement Ratio (DMSO/VVD-118313)” value (TYK2_C838 [17]; 0.1 µM) was 1.5, the “%Engagement” value (TYK2_C838 [17]; 1 µM) was 83% and the “Engagement Ratio (DMSO/VVD-118313)” value (TYK2_C838 [17]; 1 µM) was 5.9. For the same molecule, the “%Engagement” value (TYK2_C838 [17]; 10 µM) was 96%, the “Engagement Ratio (DMSO/VVD-118313)” value (TYK2_C838 [17]; 10 µM) was 20.0 and the “engagement of mouse JAK1 C816 (% inhibition)” value (C816 of mouse JAK1) was greater than 90%. For the same molecule, the “blockade of IFNγ-stimulated STAT1 phosphorylation” value ([18]; K908E-JAK1-expressing 22Rv1 cells) was ~ 40%, the “blockade of IFNγ-stimulated STAT1 phosphorylation” value ([18]; K908E/C817A-JAK1-expressing 22Rv1 cells) was “not observed” and the “effect on IFNγ-stimulated STAT1 phosphorylation” value ([18]; WT-JAK1 transfected 22Rv1 cells, 1 μM, 2 h) was “Neither VVD-118313 nor the TYK2 inhibitor BMS-986165 altered”. For the same molecule, the “induction of interferon-stimulated genes (OAS1, MX1, IFIT1, CCL2)” value [19] was “blocked the induction”, the “inhibition of IFNα-STAT1 phosphorylation” value [20, 23] was less than 10% and the “effect on IFNα-stimulated pSTAT1” value [20, 24] was “blocked”. The “maximal inhibition of IFNα-STAT1 phosphorylation” value [20, 25] was greater than 80%, the “Engagement Ratio (DMSO/VVD-118313)” value (TOR4A_C21 [21]; 0.01 µM) was 0.9 and the “Engagement Ratio (DMSO/VVD-118313)” value (TOR4A_C21 [21]; 0.1 µM) was 1.0. For the same molecule, the “%Engagement” value (TOR4A_C21 [21]; 1 µM) was 65%, the “Engagement Ratio (DMSO/VVD-118313)” value (TOR4A_C21 [21]; 1 µM) was 2.9 and the “%Engagement” value (TOR4A_C21 [21]; 10 µM) was 92%. The “Engagement Ratio (DMSO/VVD-118313)” value (TOR4A_C21 [21]; 10 µM) was 11.8 and the “effect on phosphorylation of the TYK2 activation loop” value [22] was “inhibited”.
